“And” between values parts separate entries of the source, which are not always exact repeats. Equal values may be shown once.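 Protocol summary: plate cells (96-well), add compound at 5 concentrations, incubate 48 h, interpolate endpoints linearly. GI50 marks 50% less growth. Definition used: TGI = concentration required for complete inhibition of growth.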
Legend:
Test in all cases: inhibition of tumour cell growth, NCI panel, 48 h
[1] = test system: HL-60(TB) leukemia
[2] = test system: HOP-62 NSCLC
[3] = test system: U251 CNS
[4] = test system: NCI-H23 lung
[5] = test system: 786-0 renal
[6] = test system: MDA-MB-231 breast
[7] = test system: LXFL 529 NSCLC
[8] = test system: HT29 colon
[9] = test system: OVCAR-4 ovarian
[10] = test system: SNB-78 CNS

Cc1cc(C2CCCCC2)n(O)c(=O)c1
TGI [1]: 10.1 µM | GI50 [2]: 0.913 µM | TGI [2]: 40 µM | GI50 [3]: 1.13 µM | GI50 [4]: 3.03 µM | TGI [4]: > 100 µM and 64.8 µM | GI50 [5]: 2.26 µM | TGI [5]: > 100 µM | GI50 [6]: 2.16 µM | TGI [6]: > 100 µM | TGI [7]: > 100 µM | GI50 [8]: 5.27 µM | TGI [8]: > 100 µM | GI50 [9]: 0.75 µM | TGI [9]: > 100 µM

C=C1C(=O)O[C@H]2[C@H]1CC/C(COC(=O)/C=C\C(=O)NCc1ccc(Cn3c(=O)sn(-c4ccc(C#N)cc4)c3=O)cc1)=C\CC[C@@]1(C)O[C@@H]21
GI50 [1]: 0.961 µM | TGI [1]: 3.49 µM | GI50 [2]: 2.52 µM | TGI [2]: 9 µM | GI50 [3]: 0.759 µM | TGI [3]: 1.62 µM | GI50 [4]: 0.861 µM | TGI [4]: 1.81 µM | GI50 [5]: 0.727 µM | TGI [5]: 1.52 µM | GI50 [6]: 0.72 µM | TGI [6]: 1.74 µM | GI50 [8]: 0.474 µM | TGI [8]: 1.9 µM | GI50 [9]: 0.672 µM | TGI [9]: 1.37 µM

COc1cc(C(=O)O[C@H](C(N)=O)[C@]2(C)CO2)c2ccccc2c1
GI50 [1]: 40.9 µM | TGI [1]: > 100 µM | GI50 [2]: 5.72 µM | TGI [2]: 17.9 µM | GI50 [3]: 18.6 µM | TGI [3]: 35.4 µM | GI50 [4]: 7.95 µM | TGI [4]: 21.8 µM | GI50 [5]: 5.08 µM | TGI [5]: 17.3 µM | GI50 [6]: 13 µM | TGI [6]: 27.7 µM | GI50 [8]: 13.7 µM | TGI [8]: 27.9 µM | GI50 [9]: 10.1 µM | TGI [9]: 48.6 µM

COC(=O)CSc1n[nH]c(-c2ccc(O)c([N+](=O)[O-])c2)n1
TGI [1]: > 100 µM | TGI [3]: > 100 µM | TGI [4]: > 100 µM | TGI [5]: > 100 µM | TGI [7]: > 100 µM | TGI [8]: > 100 µM | TGI [9]: > 100 µM

CCOC(=O)c1c(C)n(Cc2ccc(OC)cc2)c2c1cc(O)c1[nH]c3c(c12)CCCC3
GI50 [1]: 3.03 µM | TGI [1]: > 100 µM | GI50 [2]: 10.5 µM | TGI [2]: 24.9 µM | GI50 [3]: 2.31 µM | TGI [3]: 5.89 µM | GI50 [4]: 1.9 µM | TGI [4]: 13.3 µM | GI50 [5]: 13.1 µM | TGI [5]: 49.4 µM | GI50 [6]: 0.617 µM | TGI [6]: > 100 µM | GI50 [8]: 12.9 µM | TGI [8]: > 100 µM | GI50 [9]: 15.6 µM | TGI [9]: 88.6 µM

CCOC(=O)NC(=O)c1cn(CCCOC(=O)NCCCCCCNC(=O)OCCCn2c(=O)c(C(=O)NC(=O)OCC)cn(C)c2=O)c(=O)n(C)c1=O
TGI [1]: > 100 µM | TGI [3]: > 100 µM | TGI [4]: > 100 µM | TGI [5]: > 100 µM | TGI [7]: > 100 µM | TGI [8]: > 100 µM | TGI [9]: > 100 µM

Nc1nccc(-c2c(-c3ccc(F)cc3)ncn2CCCN2CCOCC2)n1
GI50 [1]: > 25 µM | TGI [1]: > 25 µM | GI50 [2]: > 25 µM | TGI [2]: > 25 µM | GI50 [3]: > 25 µM | TGI [3]: > 25 µM | GI50 [4]: > 25 µM | TGI [4]: > 25 µM | GI50 [5]: > 25 µM | TGI [5]: > 25 µM | GI50 [6]: > 25 µM | TGI [6]: > 25 µM | GI50 [8]: > 25 µM | TGI [8]: > 25 µM | GI50 [9]: > 25 µM | TGI [9]: > 25 µM

NCCCCn1c2c(c3ccccc3c1=O)C(=O)c1ccccc1-2
GI50 [1]: 0.0382 µM | TGI [1]: 0.0919 µM | GI50 [2]: 0.0528 µM | TGI [2]: 0.272 µM | GI50 [3]: 0.0485 µM | TGI [3]: 0.824 µM | GI50 [4]: 0.129 µM | TGI [4]: 0.655 µM | GI50 [5]: 0.0639 µM | TGI [5]: 0.573 µM | GI50 [6]: 0.23 µM | TGI [6]: 0.848 µM | GI50 [8]: 0.163 µM | GI50 [9]: 0.542 µM | TGI [9]: 5.08 µM

C[C@]12CC[C@@H]3c4ccc(O)cc4C[C@@H](CCCCCCCCCS(=O)CCCC(F)(F)C(F)(F)F)[C@H]3[C@@H]1CC[C@@H]2O (stereo partly drawn)
GI50 [1]: 6.53 µM | TGI [1]: > 100 µM | GI50 [2]: > 67.4 µM | TGI [2]: > 100 µM | GI50 [3]: > 100 µM | TGI [3]: > 100 µM | GI50 [4]: > 100 µM | TGI [4]: > 100 µM | GI50 [5]: > 100 µM | TGI [5]: > 100 µM | GI50 [6]: > 100 µM | TGI [6]: > 100 µM | GI50 [8]: > 100 µM | TGI [8]: > 100 µM | GI50 [9]: > 100 µM | TGI [9]: > 100 µM

O=c1[nH]c(=O)n(C2CC(O)C(CS)O2)cc1F (stereo not drawn)
TGI [1]: > 100 µM | TGI [2]: > 93.8 µM | TGI [3]: > 100 µM | TGI [4]: > 100 µM | TGI [10]: > 100 µM | TGI [5]: > 100 µM | TGI [6]: > 100 µM | TGI [8]: > 100 µM | TGI [9]: > 100 µM

CC12CCCC(CC(=O)c3[nH]c4ccccc4c31)C2 (stereo not drawn)
GI50 [1]: 0.34 µM | TGI [1]: 3.94 µM | GI50 [2]: 0.813 µM | TGI [2]: 50 µM | GI50 [3]: 0.689 µM | TGI [3]: 34.7 µM | GI50 [4]: 2.07 µM | TGI [4]: > 63.1 µM | GI50 [5]: 0.879 µM | TGI [5]: 18.4 µM | GI50 [6]: 3.26 µM | TGI [6]: 43.1 µM | GI50 [8]: 0.377 µM | TGI [8]: 6.27 µM | GI50 [9]: 9.74 µM | TGI [9]: > 90.8 µM

CC(C)(C)C1=CC(=CC=C2C=CN(CCCCCCCCCCCO)C=C2)C=C(C(C)(C)C)C1=O
TGI [1]: 3.71 µM | TGI [2]: 3.63 µM | TGI [3]: 2.68 µM | TGI [4]: 10.6 µM | TGI [5]: 3.94 µM | TGI [6]: 3.28 µM | TGI [8]: > 25.7 µM | TGI [9]: 3.57 µM

Cc1ccc(N=NC(C(=O)c2ccccc2)C(=O)c2ccccc2)cc1
TGI [1]: 33.7 µM | TGI [2]: 71.9 µM | TGI [3]: > 100 µM | TGI [4]: 63.2 µM | TGI [5]: 40 µM | TGI [7]: > 100 µM | TGI [8]: 62.2 µM | TGI [9]: 61.6 µM

CC(C)=[CH][Sb]([Br])([CH]=C(C)C)([CH]=C(C)C)[CH]=C(C)C
GI50 [1]: 1.88 µM | TGI [1]: 24.3 µM | GI50 [2]: 40.3 µM | TGI [2]: > 100 µM | GI50 [3]: 12.2 µM | TGI [3]: 79.3 µM | GI50 [4]: 6.12 µM | TGI [4]: 46.7 µM | GI50 [5]: 34.4 µM | TGI [5]: > 100 µM | GI50 [7]: 6.58 µM | TGI [7]: > 100 µM | GI50 [8]: 15.1 µM | TGI [8]: > 100 µM | GI50 [9]: 22.7 µM | TGI [9]: > 100 µM

COc1ccc(C(=O)/C=C/c2cccnc2Nc2cc(OC)c(OC)c(OC)c2)cc1
GI50 [1]: 1.27 µM | TGI [1]: 4.01 µM | GI50 [2]: 2.19 µM | TGI [2]: 12.7 µM | GI50 [3]: 0.926 µM | TGI [3]: 7 µM | GI50 [4]: 2.24 µM | TGI [4]: 17.6 µM | GI50 [5]: 1.22 µM | TGI [5]: 2.96 µM | GI50 [6]: 2.67 µM | TGI [6]: 12.4 µM | GI50 [8]: 0.38 µM | TGI [8]: 1.6 µM | GI50 [9]: 1.52 µM | TGI [9]: 10.1 µM

CC(C)CSc1nc(Nc2ccccc2)c(C#N)c(-c2ccc(F)cc2)n1
GI50 [1]: > 100 µM | TGI [1]: > 100 µM | GI50 [2]: 2.1 µM | TGI [2]: 12.9 µM | GI50 [3]: 0.652 µM | TGI [3]: 2.78 µM | GI50 [4]: 6.35 µM | TGI [4]: 28.7 µM | GI50 [5]: 1.9 µM | TGI [5]: 5.19 µM | GI50 [6]: 2.25 µM | TGI [6]: 13 µM | GI50 [8]: 14.5 µM | TGI [8]: > 100 µM | GI50 [9]: 0.335 µM | TGI [9]: 1.16 µM

From PubChem BioAssay (NCI)
